For 3 molecules, MIC and melting point results are on record in patent publication US20070054884A1 (priority 2005, published 2007).

The subject of data set [1] is S. aureus 29213. Briefly: Minimum Inhibitory Concentration (MIC), broth dilution method. The settings on record: Staphylococcus aureus, 29213, read-out: MIC S. aureus 29213. Format: cell-based. The procedure: (§1) Minimum Inhibitory Concentration (MIC), Broth Dilution Method:
(§2) The compounds of the present invention were tested against selected Gram positive and Gram negative organisms using standard microtitration techniques well known to those skilled in the art. Cultures of bacteria were initially applied by streaking a loopful onto agar plates under the appropriate conditions. For example, bacterial stocks are streaked for isolation of single colonies onto chocolate agar and then incubated for 18 hours at 35-37° C. in a 5% CO2 incubator. Five to ten colonies were picked from the chocolate agar plate for subculture to Brain-Heart infusion (BHI) broth, Mueller Hinton broth, or BHI containing 4% serum, and incubated under the appropriate conditions. The ability of the test compound to act as an antimicrobial was determined by the ability of dilutions of the test substance to inhibit bacterial growth in vitro. The optical density of the culture of organisms in the presence of an active compound was compared to the optical density of the same organism grown without test compound. The activity of the compounds is described as either negative or the lowest concentration inhibiting growth (Minimum Inhibitory Concentration [MIC]).
(§3) The activity of selected compounds of the present invention against representative Gram positive and Gram negative bacteria are shown in the following Table 1.
For orientation: Broth dilution looks for growth in wells or tubes with falling amounts of substance.

Data set [2] relates to S. pneumoniae 11733. The description is as above. Format: cell-based. The following applies: Streptococcus pneumoniae, 11733, read-out: MIC S. pneumoniae 11733. How it is done: as §1, §2, §3
The test system of data set [3] is B. cereus. Described as above. The settings on record: Bacillus cereus, read-out: MIC B. cereus. It is filed as cell-based. The procedure: as §1, §2, §3
Data set [4] concerns B.anthracis V770-NR1-R. Briefly: microbe, parasite or virus in culture. Format: cell-based. The settings on record: Bacillus anthracis, V770NR1R, read-out: MIC B.anthracis V770-NR1-R.

Each structure is given as a SMILES string. Converted amounts (≈) assume the structure as drawn.

A word on the melting point: it is the temperature, or range, at which the solid turns liquid.

As to `CCOC(=O)NC(=S)Nc1cc(Oc2ccc(Cl)cc2Cl)c(O)cc1Cl` [Example 7], the melting point lay in the range of 170 to 172 °C. For the same molecule, the MIC in data set [1] came to 2000 µg/mL (≈ 4.59 mM). Besides, the MIC in data set [2] stood at 31.3 mg/mL (≈ 71.8 mM). For the same molecule, the MIC in data set [3] was determined as 800 µg/mL (≈ 1.84 mM). Besides, the MIC in data set [4] worked out at 1600 µg/mL (≈ 3.67 mM).

`Oc1cc(Cl)c(NC(=S)Nc2ccc(F)cc2)cc1Oc1ccc(Cl)cc1Cl` [Example 10, 1-[2-Chloro-5-(2,4-dichloro-phenoxy)-4-hydroxy-phenyl]-3-(4-fluoro-phenyl)-thiourea] yielded a melting point of 89 to 91 °C. In data set [1], the MIC worked out at 4000 µg/mL (≈ 8.74 mM). In addition, the MIC in data set [2] is 31.3 mg/mL (≈ 68.4 mM). In data set [3], the MIC amounted to 400 µg/mL (≈ 0.874 mM). The MIC in data set [4] was found to be 1600 µg/mL (≈ 3.5 mM).

For `Oc1cc(Cl)c(-n2cnnn2)cc1Oc1ccc(Cl)cc1Cl` [Example 32, 5-Chloro-2-(2,4-dichloro-phenoxy)-4-tetrazol-1-yl-phenol], the melting point lay in the range of 147 to 148 °C. Further, in data set [1], the MIC is 1600 µg/mL (≈ 4.47 mM). Also, in data set [2], the MIC was found to be 3.1 mg/mL (≈ 8.67 mM). Also, the MIC in data set [3] was found to be 1300 µg/mL (≈ 3.64 mM). Also, in data set [4], the MIC is 800 µg/mL (≈ 2.24 mM).
